These results are taken from PubChem BioAssay AID504868 (The Scripps Research Institute Molecular Screening Center, 2011).

“And” between values parts separate entries of the source, which are not always exact repeats. Equal entries are not always repeated. The source made the active and inactive calls. How the calls were made is not given here. Bounds are passed on as bounds.

The target in the assay is Neuropeptides B/W receptor type 1 (Homo sapiens) (UniProt P48145). Briefly: antagonism of neuropeptide B/W receptor GPR7 – cell-based, fluorescence, dose response, set 2, late-stage follow-up (AID 504868). To be noted: GPR7-expressing cells, fluorescence antagonist readout.

One may read the IC50 as the concentration that inhibits the measured activity by half. For the compound `COc1ccc(Oc2c(C)cnn(-c3ccc(C(C)C)cc3)c2=O)cc1`, the IC50 (run 1) was 7480 nM and the IC50 (run 2) is 7220 nM.

For `COC(=O)c1cnn(-c2ccc(C(C)C)cc2)c(=O)c1Oc1ccc(OC)cc1`, the IC50 (run 1) was 2730 nM and the IC50 (run 2) was 1880 nM.

As for `COc1ccc(Oc2c(Cl)cnn(-c3ccc(C)cc3)c2=O)cc1`, the IC50 runs as follows: (run 1) 1010 nM and 2230 nM; (run 2) 741 nM and 1420 nM; (run 3) 1350 nM.

In the case of `COc1ccc(Oc2c(-c3ccccc3)cnn(-c3ccc(C)cc3)c2=O)cc1`, the IC50 is, setting by setting: (run 1) > 20000 nM (inactive); (run 2) > 20000 nM (inactive); (run 3) > 20000 nM (inactive).

`COc1ccc(Oc2c(C3CC3)cnn(-c3ccc(C)cc3)c2=O)cc1`: the concentration for half-maximal inhibition (IC50) reads like this: (run 1) 6220 nM; (run 2) 4000 nM.

Consider `COc1ccc(Oc2c(C=O)cnn(-c3ccc(C(C)C)cc3)c2=O)cc1`, for which the IC50 reads like this: (run 1) 6200 nM; (run 2) 4410 nM.

On to `Cc1ccc(-n2ncc(Cl)c(Oc3ccc(CO)cc3)c2=O)cc1`, for which the IC50 is 2260 nM (run 1), 844 nM (run 2) and 1710 nM (run 3).

On to `COc1ccc(Oc2c(C#N)cnn(-c3ccc(C(C)C)cc3)c2=O)cc1`, for which the IC50 (run 1) is 4190 nM and the IC50 (run 2) is 2410 nM.

Turning to `Cc1ccc(-n2ncc(Cl)c(Oc3ccc(C(F)(F)F)cc3)c2=O)cc1`, the IC50 is, setting by setting: (run 1) 2160 nM; (run 2) 1050 nM; (run 3) 1800 nM.

On to `Cc1ccc(-n2ncc(Cl)c(Oc3ccc(OC(F)(F)F)cc3)c2=O)cc1`, for which the IC50 is, setting by setting: (run 1) 878 nM; (run 2) 518 nM; (run 3) 836 nM.
